Measured values published in patent publication US9084817B2, “Oral preparation comprising specific organic acid, and method for improvement in elution property and chemical stability of oral preparation” (TORAY INDUSTRIES, INC., priority 2007, dated 2015).

Assay: Water required to dissolve 1 g of organic acid at 20° C. (Japanese Pharmacopoeia solubility)
Assay type: physicochemical
Protocol: The organic acid 1 g of which requires not less than 30 mL of water to dissolve in at 20° C. refers to such an organic acid that 30 mL or more of water is required to dissolve 1 g of the organic acid within 30 minutes at 20±5° C. by vigorous shaking for 30 seconds each time at 5-minute intervals, in accordance with the description about solubility in the Japanese Pharmacopoeia, 15th Edition, General Notices, page A-13.

O=C(O)/C=C/C(=O)O [Fumaric acid]
Water required to dissolve 1 g of organic acid in at 20° C.: ≥ 100 mL
